This note sets out measurements from US11117901B2, “Substituted pyrazolo[4,3-h]quinazolines as choline kinase inhibitors” (NERVIANO MEDICAL SCIENCES S.R.L., priority 2017, dated 2021).

Structures are written as SMILES. Bounds are passed on as bounds.

The target in one assay is T1, hChoKβ FL (Homo sapiens, UniProt Q9Y259).
T1 construct: hChoKβ full length (FL), corresponding to aminoacids 2-395; GST (N, cleaved yes); PreScission Protease recognition site (N); made in house; host or cells: Escherichia coli BL21pLysS (DE3)
Put plainly: Biochemical kinase inhibition assay (Kinase-Glo luminescent) on hChoKβ FL. The settings on record: recombinant hChoKβ FL 30 nM, ATP 5 μM, choline 20 μM, 60 min rt; read-out: ChoKβ IC50. The procedure: (§1) HumanΔ49ChoKα ([…]Δ49N-hChoKα) cDNA fragment 362-1534, corresponding to aminoacids 50 457 (J. Mol. Biol. 2006, 364, 136-151), and hChoKβ full length (FL), corresponding to aminoacids 2-395 ((PLoS ONE 2009, 4, e7819), were amplified by PCR from human library and cloned, inserting upstream a Prescission Protease recognition site, in pDonor 221 vector, using the Gateway Technology® (Invitrogen). After sequence control, LR reaction was performed in the final expression pGEX 2Tg vector. Both the proteins were expressed in Escherichia coli BL21pLysS (DE3) strain in auto-induction (Kessler) medium in the presence of […] carbenicillin at 25° C. for 16 h. Cells were harvested by centrifugation, the pellet was re-suspended in Lysis buffer (50 mM Tris-HCl pH 7.8, 150 mM NaCl, 10% glycerol, 0.2% CHAPS, 20 mM DTT, Protease Inhibitor Cocktail Tablets from Roche Biochemicals) and lysed by Gaulin homogenizer (Niro Soavi). The lysate was cleared by centrifugation. The supernatant was added to GSH resin and let flow by gravity. The GSH resin was washed with 5 column volume (CV) of cold wash buffer (50 mM Tris-HCl pH 7.8, 150 mM NaCl, 10% glycerol), then with 10 CV of the same buffer containing 2 mM of DTT. Both GST-Δ49N-hChoKα and hChoKβ were subjected to on-column cleavage of the GST tag with Prescission Protease overnight. The eluted cleaved proteins were further purified by ion exchange (ResQ 6 mL chromatography column from GE healthcare) with a gradient from 50 to 500 mM NaCl in 30 CV. The fractions containing […]Δ49N-hChoKα or hChoKβ were pooled, concentrated and gel filtered on a Superdex200 16/60 (GE Healthcare). The final protein concentration was estimated using the Bradford assay. All the samples purified were resolved by SDS-PAGE.
(§2) Biochemical Kinase inhibition Assay on Δ49N-hChoKα and hChoKβFL
(§3) The biochemical activity of compounds against Δ49N-ChoKα and ChoK3 FL were determined using the Kinase-Glo™ Luminescent Kinase Assay (Promega cat. V6711). The assay is based on incubation of the recombinant Δ49N-hChoKα and hChoKβ FL produced in house, 2.2 nM and 30 nM, respectively, with the specific substrates, choline (Sigma-Aldrich-C7017) and ATP, followed by quantification, at the end of reaction time, of the residual not reacted ATP.
(§4) Compounds were 3-fold serially diluted from 10 to 0.0005 μM, then incubated for 60 minutes at room temperature in the presence of ATP 5 μM, choline (5 μM for ChoKα and 20 μM for ChoKβ) and enzyme in a final volume of 19 μL of kinase buffer (50 mM Hepes pH 7.5, 10 mM MgCl2, 1 mM DTT, 3 μM Na3VO4 and 0.2 mg/mL BSA). The final concentration of DMSO was 1%. The assay was run in a robotized format on 384-well plates (Perkin Elmer cat. #6005301).
(§5) At the end of the incubation, an amount of 19 μL of KinaseGlo Reagent was added to each well to stop the reaction and after 30 minutes the luminescence signal was measured using ViewLux reader (Perkin Elmer).
(§6) All information about plate dilution, distribution and raw data of inhibition are tracked via barcode reading and stored in an Oracle DB. The data per each molecule are analyzed by an internally customized version of the SW package “Assay Explorer” which provides sigmoidal fittings of the ten-dilution curves for IC50 determination using a 4 parameter logistic equation: y=bottom+(top−bottom)/(1+10^((log IC50−x)*slope)) where x is the logarithm of the inhibitor concentration, y is the response; y starts at bottom and goes to top with a sigmoid shape.
On the technique in general: In Kinase-Glo more light means more ATP remaining.

Another assay has as its target T2, Δ49N-hChoKα (Homo sapiens, UniProt P35790).
T2 construct: cDNA fragment 362-1534, corresponding to aminoacids 50 457; GST (N, cleaved yes); PreScission Protease recognition site (N); made in house; host or cells: Escherichia coli BL21pLysS (DE3)
Description: Biochemical kinase inhibition assay (Kinase-Glo luminescent) on Δ49N-hChoKα. The settings on record: recombinant Δ49N-hChoKα 2.2 nM, ATP 5 μM, choline 5 μM, 60 min rt; read-out: ChoKα IC50. How it is done:
as §1, §2, §3, §4, §5, §6

T1 sequence (Q9Y259 2-395): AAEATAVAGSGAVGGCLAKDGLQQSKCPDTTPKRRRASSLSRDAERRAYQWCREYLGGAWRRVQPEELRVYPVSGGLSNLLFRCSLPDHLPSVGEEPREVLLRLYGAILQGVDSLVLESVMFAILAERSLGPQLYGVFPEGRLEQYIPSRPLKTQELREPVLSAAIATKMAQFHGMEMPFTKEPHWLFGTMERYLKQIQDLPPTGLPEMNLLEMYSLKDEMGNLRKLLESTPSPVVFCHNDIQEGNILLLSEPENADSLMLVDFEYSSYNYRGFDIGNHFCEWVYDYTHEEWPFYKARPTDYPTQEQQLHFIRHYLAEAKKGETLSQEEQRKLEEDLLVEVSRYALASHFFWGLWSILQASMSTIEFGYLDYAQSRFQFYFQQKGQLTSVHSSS
T2 sequence (P35790 50-439 isoform P35790-2): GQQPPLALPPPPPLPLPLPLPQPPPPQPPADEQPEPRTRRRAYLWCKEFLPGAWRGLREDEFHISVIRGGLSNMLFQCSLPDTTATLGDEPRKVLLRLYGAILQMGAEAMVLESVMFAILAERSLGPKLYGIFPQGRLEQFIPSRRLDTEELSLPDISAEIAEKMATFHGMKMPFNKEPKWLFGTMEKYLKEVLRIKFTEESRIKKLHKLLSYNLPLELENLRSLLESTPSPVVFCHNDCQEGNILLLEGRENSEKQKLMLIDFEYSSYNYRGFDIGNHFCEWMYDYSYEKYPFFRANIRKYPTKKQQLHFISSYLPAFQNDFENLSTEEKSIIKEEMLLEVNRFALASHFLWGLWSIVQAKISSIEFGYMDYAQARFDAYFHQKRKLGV

In the case of `CN(C)C1CCN(C(=O)Cc2csc(NC(=O)c3n[nH]c4c3C(C)(C)Cc3cnc(N)nc3-4)n2)CC1` [compound 89], the IC50 on hChoKβ FL is 0.4 µM; on Δ49N-hChoKα, 0.01 µM.
Turning to `CC1(C)Cc2cnc(N)nc2-c2[nH]nc(C(=O)Nc3nc(CC(=O)N4CCC(C(N)=O)CC4)cs3)c21` [compound 90], the IC50 on hChoKβ FL was greater than 10 µM; at Δ49N-hChoKα, 0.161 µM.
`CC1(C)Cc2cnc(N)nc2-c2[nH]nc(C(=O)Nc3nc(CC(=O)N4CCC(CO)CC4)cs3)c21` [compound 91]: the figures for the IC50 at hChoKβ FL and at Δ49N-hChoKα were greater than 10 µM and 0.098 µM, respectively.
For `CC1(C)Cc2cnc(N)nc2-c2[nH]nc(C(=O)Nc3nc(CC(=O)N4CCC(O)CC4)cs3)c21` [compound 92], in that order: greater than 10 µM and 0.228 µM.
For `CN(C)[C@H]1CCN(C(=O)Cc2csc(NC(=O)c3n[nH]c4c3C(C)(C)Cc3cnc(N)nc3-4)n2)C1` [compound 93], in that order: 0.761 µM and 0.012 µM.
On to `CC1(C)Cc2cnc(N)nc2-c2[nH]nc(C(=O)Nc3nc(CC(N)=O)cs3)c21` [compound 94], for which the IC50 was 1.42 µM on hChoKβ FL and 0.073 µM at Δ49N-hChoKα.
For `CN(C)CCCNC(=O)Cc1csc(NC(=O)c2n[nH]c3c2C(C)(C)Cc2cnc(N)nc2-3)n1` [compound 95], the IC50 came out at 0.126 µM at hChoKβ FL and 0.015 µM on Δ49N-hChoKα.
For `CCOC(=O)Cc1ccc(NC(=O)c2n[nH]c3c2C(C)(C)Cc2cnc(N)nc2-3)cc1` [compound 96], the IC50 on hChoKβ FL was 0.934 µM; at Δ49N-hChoKα it was 0.198 µM.
Consider `CC1(C)Cc2cnc(N)nc2-c2[nH]nc(C(=O)Nc3ccc(CC(=O)N4CCC(N5CCCCC5)CC4)cc3)c21` [compound 98], for which the IC50 was 1.29 µM on hChoKβ FL and 0.057 µM at Δ49N-hChoKα.
Turning to `CC1(C)Cc2cnc(N)nc2-c2[nH]nc(C(=O)Nc3ccc(O)cc3)c21` [compound 105], the IC50 at hChoKβ FL was determined as 0.398 µM; at Δ49N-hChoKα, 0.229 µM.
Turning to `CC1(C)Cc2cnc(N)nc2-c2[nH]nc(C(=O)Nc3cccc(C4OCCCO4)c3)c21` [compound 106], the figures for the IC50 on hChoKβ FL and at Δ49N-hChoKα were 5.2 µM and 0.343 µM, respectively.
As to `CC1(C)Cc2cnc(N)nc2-c2[nH]nc(C(=O)Nc3cccc(C=O)c3)c21` [compound 107], the results for the IC50 on hChoKβ FL and on Δ49N-hChoKα were 2.68 µM and 0.737 µM, respectively.
Consider `Cn1nc(C(=O)Nc2nc(CC(=O)N3CCC(N4CCCCC4)CC3)cs2)c2c1-c1nc(N)ncc1CC2(C)C` [compound 108], for which the IC50 amounted to 3.97 µM on hChoKβ FL and 0.005 µM on Δ49N-hChoKα.
As to `Cn1nc(C(=O)Nc2cccc(CN3CCC(N4CCCCC4)CC3)c2)c2c1-c1nc(N)ncc1CC2(C)C` [compound 109], the values for the IC50 at hChoKβ FL and on Δ49N-hChoKα were greater than 10 µM and 0.431 µM, respectively.
For the compound `CC1(C)Cc2cnc(N)nc2-c2[nH]nc(C(=O)Nc3cccc(CN4CCC(N5CCCCC5)CC4)c3)c21` [compound 110], the IC50 at hChoKβ FL was determined as 2.85 µM; at Δ49N-hChoKα, 0.135 µM.
As to `CC1CCN(C2CCN(Cc3cccc(NC(=O)c4nn(C)c5c4C(C)(C)Cc4cnc(N)nc4-5)c3)CC2)CC1` [compound 111], the IC50 at hChoKβ FL is greater than 10 µM; at Δ49N-hChoKα, 0.64 µM.
For `CC1CCN(C2CCN(Cc3cccc(NC(=O)c4n[nH]c5c4C(C)(C)Cc4cnc(N)nc4-5)c3)CC2)CC1` [compound 112], in that order: 2.13 µM and 0.187 µM.
Take `CC(C)(C)OC(=O)NC1CCN(Cc2cccc(NC(=O)c3n[nH]c4c3C(C)(C)Cc3cnc(N)nc3-4)c2)CC1` [compound 114]: the values for the IC50 at hChoKβ FL and at Δ49N-hChoKα were 2.39 µM and 0.562 µM, respectively.
Take `CN(C)[C@@H]1CCN(C(=O)Cc2csc(NC(=O)c3n[nH]c4c3C(C)(C)Cc3cnc(N)nc3-4)n2)C1` [compound 116]: the results for the IC50 at hChoKβ FL and on Δ49N-hChoKα were 0.077 µM and 0.004 µM, respectively.
As to `CN(C)C1CCN(Cc2ccc(NC(=O)c3nn(C)c4c3C(C)(C)Cc3cnc(N)nc3-4)cc2)CC1` [compound 117], the IC50 was greater than 10 µM at hChoKβ FL and 0.016 µM at Δ49N-hChoKα.
Consider `CN(C)C1CCN(Cc2ccc(NC(=O)c3n[nH]c4c3C(C)(C)Cc3cnc(N)nc3-4)cc2)CC1` [compound 118], for which the figures for the IC50 on hChoKβ FL and on Δ49N-hChoKα were 0.072 µM and 0.033 µM, respectively.
In the case of `CNC1CCN(C(=O)Cc2csc(NC(=O)c3n[nH]c4c3C(C)(C)Cc3cnc(N)nc3-4)n2)CC1` [compound 119], the IC50 on hChoKβ FL came out at 0.066 µM; on Δ49N-hChoKα it was 0.053 µM.
`CC1(C)Cc2cnc(N)nc2-c2[nH]nc(C(=O)Nc3cccc(CC(=O)N4CCC(N5CCCCC5)CC4)c3)c21` [compound 120]: the IC50 amounted to 0.913 µM at hChoKβ FL and 0.019 µM on Δ49N-hChoKα.
As for `CNc1ncc2c(n1)-c1[nH]nc(C(=O)Nc3nc(CC(=O)N4CCC(N5CCCCC5)CC4)cs3)c1C(C)(C)C2` [compound 121], the IC50 on hChoKβ FL is greater than 10 µM; on Δ49N-hChoKα it was 0.018 µM.
For the compound `CNc1ncc2c(n1)-c1[nH]nc(C(=O)Nc3nc(CC(=O)N4CCC(N5CCC(C)CC5)CC4)cs3)c1C(C)(C)C2` [compound 122], the IC50 at hChoKβ FL was greater than 10 µM; at Δ49N-hChoKα, 0.011 µM.
On to `CC1CCN(C2CCN(C(=O)Cc3csc(N(C)C(=O)c4n[nH]c5c4C(C)(C)Cc4cnc(N)nc4-5)n3)CC2)CC1` [compound 123], for which the IC50 at hChoKβ FL is greater than 10 µM; on Δ49N-hChoKα, 0.053 µM.
For `CN(C(=O)c1nn(C)c2c1C(C)(C)Cc1cnc(N)nc1-2)c1nc(CC(=O)N2CCC(N3CCCCC3)CC2)cs1` [compound 124], in that order: greater than 10 µM and 0.187 µM.
Consider `CC1(C)Cc2cnc(N)nc2-c2[nH]nc(C(=O)Nc3ccc(CNc4ccc(CN5CCC(N6CCCCC6)CC5)cc4)cc3)c21` [compound 126], for which the IC50 on hChoKβ FL came out at 0.592 µM; at Δ49N-hChoKα, 0.003 µM.
Consider `COC(=O)C1(c2csc(NC(=O)c3n[nH]c4c3C(C)(C)Cc3cnc(N)nc3-4)n2)CC1` [compound 127], for which the IC50 on hChoKβ FL is greater than 10 µM; on Δ49N-hChoKα it was 0.617 µM.
For the compound `Cn1nc(C(=O)Nc2ccc(CN3CCC(N4CCCCC4)CC3)cc2)c2c1-c1nc(N)ncc1CC2(C)C` [compound 128], the IC50 is greater than 10 µM on hChoKβ FL and 0.126 µM at Δ49N-hChoKα.
With `CC1(C)Cc2cnc(N)nc2-c2[nH]nc(C(=O)Nc3nc(C4(C(=O)O)CC4)cs3)c21` [compound 129], the figures for the half-maximal inhibitory concentration (IC50) at hChoKβ FL and at Δ49N-hChoKα were greater than 10 µM and 0.22 µM, respectively.
As for `CN(C)[C@@H]1CCN(C(=O)C2(c3csc(NC(=O)c4n[nH]c5c4C(C)(C)Cc4cnc(N)nc4-5)n3)CC2)C1` [compound 130], the IC50 on hChoKβ FL was greater than 10 µM; at Δ49N-hChoKα, 0.534 µM.
Turning to `CC1(C)Cc2cnc(N)nc2-c2[nH]nc(C(=O)Nc3nc(C4(C(=O)N5CCC(N6CCCCC6)CC5)CC4)cs3)c21` [compound 131], the IC50 at hChoKβ FL is 3.94 µM; at Δ49N-hChoKα, 0.233 µM.
For `CC(C)(C)OC(=O)NC1CCN(Cc2ccc(NC(=O)c3n[nH]c4c3C(C)(C)Cc3cnc(N)nc3-4)cc2)CC1` [compound 133], in that order: 1.44 µM and 0.536 µM.
Consider `Cn1nc(C(=O)Nc2nc(CN3CCC(N4CCCCC4)CC3)cs2)c2c1-c1nc(N)ncc1CC2(C)C` [compound 141], for which the IC50 on hChoKβ FL was greater than 10 µM; on Δ49N-hChoKα it was 0.622 µM.
Regarding `CN(C)[C@@H]1CCN(C(=O)Cc2cccc(NC(=O)c3n[nH]c4c3C(C)(C)Cc3cnc(N)nc3-4)c2)C1` [compound 142], the IC50 on hChoKβ FL worked out at 0.671 µM; on Δ49N-hChoKα, 0.11 µM.

What is called IC50 is the point on the concentration scale where inhibition reaches its midpoint.
